One may read the Ki as the dissociation constant of the complex between target and ligand, obtained from inhibition or displacement.

This assay concerns the target T1, hM2 receptor (Homo sapiens, UniProt P08172).
T1 construct: expressed in transfected cells; membranes prepared
T1 sequence (P08172 1-466): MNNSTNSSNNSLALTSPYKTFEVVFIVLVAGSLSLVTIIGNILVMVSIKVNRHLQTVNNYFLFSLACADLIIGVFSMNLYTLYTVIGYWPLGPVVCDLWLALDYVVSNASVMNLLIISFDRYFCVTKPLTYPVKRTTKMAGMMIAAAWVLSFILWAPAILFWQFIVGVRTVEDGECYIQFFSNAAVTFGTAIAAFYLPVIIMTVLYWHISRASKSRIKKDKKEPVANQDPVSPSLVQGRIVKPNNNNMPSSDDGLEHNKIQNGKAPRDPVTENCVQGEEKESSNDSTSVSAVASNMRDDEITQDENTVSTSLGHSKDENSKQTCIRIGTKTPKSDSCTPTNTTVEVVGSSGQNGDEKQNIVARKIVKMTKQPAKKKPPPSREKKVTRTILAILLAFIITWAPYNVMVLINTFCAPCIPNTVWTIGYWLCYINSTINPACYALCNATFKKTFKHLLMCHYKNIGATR
Put plainly: Blockade of agonist-mediated inhibition of cAMP accumulation. Conditions: CHO-K1 cells expressing the hM2 receptor; read-out: Ki for blockade of oxotremorine-inhibition of forskolin-mediated cAMP accumulation. The format is cell-based. As for the experimental part:
In this assay, the functional potency of a test compound was determined by measuring the ability of the test compound to block oxotremorine-inhibition of forskolin-mediated cAMP accumulation in CHO-K 1 cells expressing the hM2 receptor.
cAMP assays were performed in a radioimmunoassay format using the Flashplate Adenylyl Cyclase Activation Assay System with ^125]-cAMP (NEN SMP004B, PerkinElmer Life Sciences Inc., Boston, Mass.), according to the manufacturer's instructions.
CHO-K1 cells stably expressing cloned human M2 muscarinic receptors were grown to near confluency in a 5% CO2, 37° C. incubator in medium consisting of HAM's F-12 supplemented with 10% FBS (Fetal Bovine Serum) and 250 μg/mL Geneticin. […] The cell pellet was then re-suspended in 10 mL dPBS, and the cells were counted with a Coulter Z1 Dual Particle Counter (Beckman Coulter, Fullerton, Calif.). […]
Reactions were incubated for 10 minutes at 37° C. and stopped by addition of 100 μL ice-cold detection buffer. Plates were sealed, incubated overnight at room temperature and counted the next morning on a PerkinElmer TopCount liquid scintillation counter (PerkinElmer Inc., Wellesley, Mass.). The amount of cAMP produced (pmol/well) was calculated based on the counts observed for the samples and cAMP standards, as described in the manufacturer's user manual. […]
Background: cAMP levels reflect the balance of adenylyl cyclase and phosphodiesterase activity.

Bounds are passed on as bounds.

Take `COc1ccncc1CN1CCC(N(CCCCCCCN2CC[C@@H](C(C(N)=O)(c3ccccc3)c3ccccc3)C2)C(C)C)CC1` [Example 1]: the Ki was under 1 nM.

These data come from US7285564B2, “Substituted 4-amino-1-(pyridylmethyl)piperidine and related compounds” (Theravance, Inc., priority 2002, dated 2007).
